Our source for the IC50 values is ChEMBL document CHEMBL2407004, “3-Acyl-5-hydroxybenzofuran derivatives as potential anti-estrogen breast cancer agents: a combined experimental and theoretical investigation” (Bioorg Med Chem Lett, 2013).

This experiment deals with MCF7. Nature of the experiment: Antiproliferative activity against human MCF7 cells after 48 hrs by MTT assay. The class given is functional, cell-based. The following applies: MCF7, 48 h. (Tetrazolium assays rely on reduction of a dye to a coloured formazan, in cell work by metabolically active cells.)
As for `COc1cc2occ(C(=O)c3cccc(NC(C)=O)c3)c2cc1O`, half-maximal inhibition (IC50) was put at 43.1 µM.

As to `COc1cc2occ(C(=O)/C=C/c3ccccc3)c2cc1O`, the IC50 is 167 µM.

Take `COc1cc2occ(C(=O)/C=C/c3cccc(Cl)c3)c2cc1O`: the half-inhibitory concentration (IC50) is 464 µM.

Molecule `O=C(/C=C/c1cccc(Cl)c1)c1coc2cc(F)c(O)cc12` had an IC50 of 644 µM.

For `COc1ccc(/C=C/C(=O)c2coc3cc(F)c(O)cc23)cc1`, half-maximal inhibition (IC50) required 814 µM.

In turn, `COc1cc2occ(C(=O)c3ccc(-c4ccccc4)cc3)c2cc1O` yielded an IC50 of 1660 µM.

The molecule `COc1cc2occ(C(=O)/C=C/c3ccc4c(c3)OCO4)c2cc1O` showed an IC50 of 2110 µM.

The molecule `CC/C(=C(\c1ccccc1)c1ccc(OCCN(C)C)cc1)c1ccccc1` [TAMOXIFEN] had an IC50 of 12.3 µM.

For orientation: IC50 means the midpoint of a concentration-inhibition curve.
